Measured values from patent US20040162263A1, “Pharmaceutical formulations targeting specific regions of the gastrointesinal tract” (priority 2002, published 2004).

Assay: Pharmacokinetics of 9-nitro-camptothecin (9NC) in IVAP beagle dog model
Format: in vivo, beagle dogs
Conditions: for Mean AUC0-inf of 9-AC, Portal Vein AUC / Mean AUC0-inf of 9-AC, Systemic AUC: in ng·h/mL
Protocol: Blood samples were taken systemic and from the portal vein through a sampling/delivery vascular port previously implanted, then plasma was separated by centrifugation and kept frozen at −80° C. until analysis.
The samples were analyzed in a Perkin Elmer liquid chromatography-tandem mass spectrometer system with a PE LC-200 Micro pump, a PE200 Autosampler and a PE Sciex API 365 mass spectrometry unit.
Adult male beagle dogs (between the ages of 1 and 5 years and weighed between 9 and 16 kg) were obtained from Summit Ridge Farms, Susquehanna, Pa. The IVAP dogs were prepared by using a protocol similar to the one used for pentostatin experiments described above.
On the morning of the test, each animal is weighed and placed in the sling. An IV catheter is installed in the brachial vein for systemic blood sampling with a multiuse vacutainer needle adapter. This is flushed with heparinized saline (50 units/ml) to maintain potency between sampling. When necessary, a 20 g or 22 g right-angled Huber infusion set would be placed in the PV port and attached to a three-way stopcock for PV blood sampling.
The preparation of the dose depends on the route of study. In case of IV and PV administration, the drug was dissolved in dimethylacetamide (DMA) at 5 mg/ml and 0.5 ml of the DMA concentrate filtered through a […] filter into 4.5 ml of diluent (51% PEG-400 49% 0.001 M H3PO4) prior to administration to the brachial or portal vein. In the case of all other infusions, as well as oral administration, the drug was dissolved in vegetable oil to a concentration of 1 mg/ml and drawn up into dosing syringes. Animals were dosed IV at 0.1 and 0.2 mg/kg and 0.2 mg/kg for all the other routes of administration tested.
In intravascular studies, the dose is administered via a second catheter and the entire volume is delivered within 45 seconds.
In portal vein studies, the dose is also administered via an additional catheter over a 30 min time period.
In the case of oral dosages, the dose is delivered to the back of the mouth with an appropriate size syringe and is followed with 5 ml of tap water to assist swallowing and clearance of the dose from the mouth. Capsules were administered similarly by placing them at the back of the mouth and giving around 5 ml of water to facilitate swallowing.
For all other tests, the dosage is infused into the appropriate intestinal port and flushed with 2-3 ml of sterile saline. The dead space volume of the ports and tubing vary slightly between individuals, but are generally less than 0.5 ml total. […]
Systemic blood samples allow the calculation of AUC0-inf after oral capsule administration only and portal vein AUC for all the routes of administration.

[1] = 9-NC 0.2 mg/kg COLON port, 0.17 hr
[2] = 9-NC 0.2 mg/kg ileum port, 0.17 hr
[3] = 9-NC 0.2 mg/kg jejunal port, 0.17 hr
[4] = portal vein samples, 9-NC via COLON port
[5] = portal vein samples, 9-NC via ILEUM port
[6] = portal vein samples, 9-NC via JEJUNUM port
[7] = systemic samples, 9-NC via COLON port
[8] = systemic samples, 9-NC via ILEUM port
[9] = systemic samples, 9-NC via JEJUNUM port

## CC[C@@]1(O)C(=O)OCc2c1cc1n(c2=O)Cc2cc3c(N)cccc3nc2-1 [9-AC, 9-amino-20(S)-camptothecin]
[1]
  Mean plasma concentration, Portal Vein: 0.50 ± 0.03 ng/mL
  Mean plasma concentration, Systemic: 0.42 ng/mL
[2]
  Mean plasma concentration, Portal Vein: 0.12 ng/mL
  Mean plasma concentration, Systemic: BQL
[3]
  Mean plasma concentration, Portal Vein: 0.10 ng/mL
  Mean plasma concentration, Systemic: BQL
9-NC Intracolon
  Mean AUC0-inf of 9-AC, Portal Vein AUC: 20.81 ± 9.57
  Mean AUC0-inf of 9-AC, Systemic AUC: 36.91 ± 22.62
9-NC Intraileum
  Mean AUC0-inf of 9-AC, Systemic AUC: 21.23 ± 14.94
9-NC Intrajejunal
  Mean AUC0-inf of 9-AC, Portal Vein AUC: 50.26 ± 6.65
  Mean AUC0-inf of 9-AC, Systemic AUC: 24.41 ± 7.77
9-NC Intravenous (0.1 mg/kg)
  Mean AUC0-inf of 9-AC, Portal Vein AUC: 10.76 ± 3.02
  Mean AUC0-inf of 9-AC, Systemic AUC: 12.14 ± 5.68
9-NC Intravenous (0.2 mg/kg)
  Mean AUC0-inf of 9-AC, Portal Vein AUC: 25.02 ± 9.87
  Mean AUC0-inf of 9-AC, Systemic AUC: 21.04 ± 2.36
9-NC Oral - capsule
  Mean AUC0-inf of 9-AC, Portal Vein AUC: 66.15 ± 34.53
  Mean AUC0-inf of 9-AC, Systemic AUC: 44.74 ± 24.72
9-NC Oral - suspension
  Mean AUC0-inf of 9-AC, Portal Vein AUC: 34.43 ± 9.52
  Mean AUC0-inf of 9-AC, Systemic AUC: 20.31 ± 6.97
9-NC Portal vein
  Mean AUC0-inf of 9-AC, Systemic AUC: 4.73 ± 0.73
COLON port, 0.5 hr
  Mean plasma concentration, Portal Vein: 0.77 ± 0.42 ng/mL
  Mean plasma concentration, Systemic: 0.30 ± 0.29 ng/mL
COLON port, 1 hr
  Mean plasma concentration, Portal Vein: 1.20 ± 0.60 ng/mL
  Mean plasma concentration, Systemic: 0.45 ± 0.20 ng/mL
COLON port, 1.5 hr
  Mean plasma concentration, Portal Vein: 1.19 ± 0.97 ng/mL
  Mean plasma concentration, Systemic: 0.76 ± 0.12 ng/mL
COLON port, 2 hr
  Mean plasma concentration, Portal Vein: 1.50 ± 0.66 ng/mL
  Mean plasma concentration, Systemic: 0.68 ± 0.11 ng/mL
COLON port, 3 hr
  Mean plasma concentration, Portal Vein: 0.88 ± 0.19 ng/mL
  Mean plasma concentration, Systemic: 0.83 ± 0.36 ng/mL
COLON port, 4 hr
  Mean plasma concentration, Portal Vein: 2.06 ± 1.69 ng/mL
  Mean plasma concentration, Systemic: 0.90 ± 0.45 ng/mL
COLON port, 6 hr
  Mean plasma concentration, Portal Vein: 1.54 ± 1.06 ng/mL
  Mean plasma concentration, Systemic: 0.74 ± 0.06 ng/mL
COLON port, 8 hr
  Mean plasma concentration, Portal Vein: 0.70 ng/mL
  Mean plasma concentration, Systemic: 1.14 ± 0.38 ng/mL
COLON port, 10 hr
  Mean plasma concentration, Systemic: 0.77 ng/mL
COLON port, 12 hr
  Mean plasma concentration, Portal Vein: 0.76 ng/mL
  Mean plasma concentration, Systemic: 1.11 ± 0.78 ng/mL
COLON port, 24 hr
  Mean plasma concentration, Portal Vein: 0.77 ng/mL
  Mean plasma concentration, Systemic: 0.83 ± 0.00 ng/mL
After IV 0.1 mg/kg 9-NC
  half-life of metabolite: 3.51 ± 1.87 h
After IV 0.2 mg/kg 9-NC
  half-life of metabolite: 6.94 ± 2.87 h
After IV dosing of 9-NC
  time at which the metabolite reached the maximum concentration: around 1 hr
Ileum port, 0.5 hr
  Mean plasma concentration, Portal Vein: 0.26 ng/mL
  Mean plasma concentration, Systemic: 0.11 ng/mL
Ileum port, 1 hr
  Mean plasma concentration, Portal Vein: 0.28 ± 0.06 ng/mL
  Mean plasma concentration, Systemic: 0.20 ng/mL
Ileum port, 1.5 hr
  Mean plasma concentration, Portal Vein: 0.75 ± 0.52 ng/mL
  Mean plasma concentration, Systemic: 0.23 ± 0.10 ng/mL
Ileum port, 2 hr
  Mean plasma concentration, Portal Vein: 0.99 ± 0.60 ng/mL
  Mean plasma concentration, Systemic: 0.52 ± 0.42 ng/mL
Ileum port, 3 hr
  Mean plasma concentration, Portal Vein: 1.80 ± 1.97 ng/mL
  Mean plasma concentration, Systemic: 1.40 ng/mL
Ileum port, 4 hr
  Mean plasma concentration, Portal Vein: 3.06 ± 3.74 ng/mL
  Mean plasma concentration, Systemic: 0.86 ± 0.67 ng/mL
Ileum port, 6 hr
  Mean plasma concentration, Portal Vein: 4.09 ± 4.44 ng/mL
  Mean plasma concentration, Systemic: 1.17 ± 0.75 ng/mL
Ileum port, 8 hr
  Mean plasma concentration, Systemic: 2.04 ± 0.20 ng/mL
Ileum port, 12 hr
  Mean plasma concentration, Systemic: 0.85 ± 0.95 ng/mL
Ileum port, 24 hr
  Mean plasma concentration, Systemic: 0.47 ng/mL
Jejunal port, 0.5 hr
  Mean plasma concentration, Portal Vein: 0.12 ng/mL
  Mean plasma concentration, Systemic: BQL
Jejunal port, 1 hr
  Mean plasma concentration, Portal Vein: 0.16 ± 0.10 ng/mL
  Mean plasma concentration, Systemic: 0.38 ng/mL
Jejunal port, 2 hr
  Mean plasma concentration, Portal Vein: 0.39 ± 0.04 ng/mL
  Mean plasma concentration, Systemic: 0.32 ± 0.11 ng/mL
Jejunal port, 3 hr
  Mean plasma concentration, Portal Vein: 0.97 ± 0.76 ng/mL
  Mean plasma concentration, Systemic: 0.47 ± 0.38 ng/mL
Jejunal port, 4 hr
  Mean plasma concentration, Portal Vein: 2.38 ± 2.20 ng/mL
  Mean plasma concentration, Systemic: 0.89 ± 0.67 ng/mL
Jejunal port, 6 hr
  Mean plasma concentration, Portal Vein: 1.65 ± 1.13 ng/mL
  Mean plasma concentration, Systemic: 1.59 ± 1.71 ng/mL
Jejunal port, 8 hr
  Mean plasma concentration, Portal Vein: 2.70 ± 0.59 ng/mL
  Mean plasma concentration, Systemic: 1.71 ± 1.54 ng/mL
Jejunal port, 10 hr
  Mean plasma concentration, Systemic: 1.81 ± 1.09 ng/mL
Jejunal port, 12 hr
  Mean plasma concentration, Portal Vein: 2.62 ± 0.29 ng/mL
  Mean plasma concentration, Systemic: 1.03 ± 0.05 ng/mL
Jejunal port, 24 hr
  Mean plasma concentration, Portal Vein: 0.66 ng/mL
  Mean plasma concentration, Systemic: 0.45 ± 0.29 ng/mL
Portal vein samples, 0.2 mg/kg 9-NC via COLON port
  AUC0-INF: 20.81 ± 9.57 ng·h/mL
Portal vein samples, 0.2 mg/kg 9-NC via JEJUNUM port
  AUC0-INF: 50.26 ± 6.65 ng·h/mL
[4]
  AUCLast: 12.69 ± 5.10 ng·h/mL
  CMAX: 2.28 ± 1.59 ng/mL
  MRT: 7.54 ± 0.61 h
  T1/2: 3.98 ± 0.25 h
  TMAX: 4.00 ± 2.00 h
[5]
  AUCLast: 11.83 ± 12.85 ng·h/mL
  CMAX: 4.10 ± 2.28 ng/mL
  TMAX: 6.00 ± 0.00 h
[6]
  AUCLast: 28.70 ± 12.16 ng·h/mL
  CMAX: 3.46 ± 1.22 ng/mL
  MRT: 13.97 ± 2.62 h
  T1/2: 6.54 ± 1.30 h
  TMAX: 9.33 ± 4.62 h
Systemic samples, 0.2 mg/kg 9-NC via COLON port
  AUC0-INF: 36.91 ± 22.62 ng·h/mL
Systemic samples, 0.2 mg/kg 9-NC via ILEUM port
  AUC0-INF: 21.23 ± 14.94 ng·h/mL
Systemic samples, 0.2 mg/kg 9-NC via JEJUNUM port
  AUC0-INF: 24.41 ± 7.77 ng·h/mL
[7]
  AUCLast: 19.34 ± 11.92 ng·h/mL
  CMAX: 1.29 ± 0.63 ng/mL
  MRT: 57.62 ± 42.79 h
  T1/2: 15.16 ± 14.34 h
  TMAX: 9.33 ± 2.31 h
[8]
  AUCLast: 18.69 ± 11.73 ng·h/mL
  CMAX: 2.04 ± 0.20 ng/mL
  MRT: 10.64 ± 5.14 h
  T1/2: 4.09 ± 4.24 h
  TMAX: 8.00 ± 0.00 h
[9]
  AUCLast: 18.86 ± 5.73 ng·h/mL
  CMAX: 1.99 ± 1.39 ng/mL
  MRT: 15.64 ± 8.69 h
  T1/2: 7.20 ± 5.98 h
  TMAX: 8.67 ± 2.31 h
